Columns and labels:
[1] = target: T1, sialidase activity associated with TLR ligand treated live BMC-2 macrophage cells (Mus musculus, UniProt O35657); conditions: 1-2 mM, compared to LPS positive control; cited from earlier work
T1 construct: endogenous in cells; host or cells: BMC-2 macrophage cells

[2] = target: T2, Neu1 sialidase (Mus musculus, UniProt O35657); assay: LPS-induced Neu1 sialidase activity in live BMA macrophage cells (4-MUNANA); type: cell-based; design: endogenous in cells; host or cells: BMA macrophage cells
Description: TLR-expressing BMA macrophage cells were grown on 12 mm circular glass slides in culture media containing DMEM supplemented with 10% fetal calf serum. […] Fluorescent images were taken after 2-3 minutes using epi-fluorescent microscopy (Zeiss Imager M2, 40× objective).
This recently developed assay was used to detect sialidase activity on the surface of viable cells. […] The inhibitory potency of a series of amide-linked C9 modified DANA (2-deoxy-2,3-dehydro-D-N-acetylneuraminic add) analogues on lipopolysaccharide (LPS)-induced Neu1 sialidase activity was assessed in live BMA macrophage cells.

[3] = target: T2, Neu1 sialidase; conditions: live BMA macrophage cells; clopidogrel bisulfate 280 and 500 μM pre-treatment; LPS 5 μg/mL; oseltamivir phosphate 400 μM; cited from earlier work
[4] = target: carboxylesterase (Homo sapiens, UniProt P23141); conditions: cited from earlier work
Chain of carboxylesterase (P23141 18-567): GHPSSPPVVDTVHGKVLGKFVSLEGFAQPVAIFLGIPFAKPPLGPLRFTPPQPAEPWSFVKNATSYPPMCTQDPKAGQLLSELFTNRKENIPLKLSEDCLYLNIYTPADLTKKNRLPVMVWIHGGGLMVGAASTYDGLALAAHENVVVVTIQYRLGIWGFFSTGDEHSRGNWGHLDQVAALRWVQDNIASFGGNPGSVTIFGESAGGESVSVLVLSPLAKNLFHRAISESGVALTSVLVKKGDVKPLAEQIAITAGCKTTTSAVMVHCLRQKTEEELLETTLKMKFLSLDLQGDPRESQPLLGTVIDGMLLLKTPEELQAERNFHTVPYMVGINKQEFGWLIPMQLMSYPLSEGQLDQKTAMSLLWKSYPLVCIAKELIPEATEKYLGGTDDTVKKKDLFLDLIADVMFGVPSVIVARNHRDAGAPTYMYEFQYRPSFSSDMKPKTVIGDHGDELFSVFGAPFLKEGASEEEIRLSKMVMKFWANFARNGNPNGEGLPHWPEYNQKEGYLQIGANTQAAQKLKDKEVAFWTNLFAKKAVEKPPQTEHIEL

[5] = tested on: MiaPaCa-2 cells; assay: Cell viability of MiaPaCa-2 pancreatic cancer cells in culture (MTT or WST-1, 72 hrs); type: cell-based, human; conditions: MiaPaCa-2; for Chemo-drug LD50: MTT, 72 hrs
[6] = tested on: PANC-1 cells; assay: Cell viability of PANC-1 pancreatic cancer cells in culture (MTT or WST-1, 72 hrs); type: cell-based, human; conditions: PANC-1; for Chemo-drug LD50: MTT, 72 hrs
[7] = tested on: BxPC-3 cells; assay: Cell viability of BxPC-3 pancreatic cancer cells in culture (MTT or WST-1, 72 hrs); type: cell-based, human; conditions: BxPC-3; for Chemo-drug LD50: MTT, 72 hrs
[8] = tested on: Capan-1 cells; assay: Cell viability of Capan-1 pancreatic metastatic cancer cells in culture (MTT or WST-1, 72 hrs); type: cell-based, human; conditions: Capan-1; for Chemo-drug LD50: WST-1, 72 hrs
Description: CAPAN-1 cells (ATCC® Number: HTB-79™) are human pancreatic cancer cell line with epithelial morphology expressing the 17 beta-estradiol (E2)-binding estrogen receptor and derived from metastatic liver with adenocarcinoma.
(§1) All cells were grown at 37° C. in 5% CO2 in culture media containing Dulbecco's Modified Eagle Medium (DMEM) (Gibco, Rockville, Md.) supplemented with 10% fetal calf serum (FCS) (HyClone, Logan, Utah, USA).
(§2) MTT is a colorimetric assay for measuring the activity of enzymes that reduce MTT or closely related dyes (XTT, MTS, WSTs) to formazan dye, giving a purple color. A main application allows the assessment of the viability (cell counting) and the proliferation of cells (cell culture assays). It can also be used to determine cytotoxicity of potential medicinal agents and toxic materials, since those agents would stimulate or inhibit cell viability and growth. MTT (3-(4,5-Dimethylthiazol-2-yl)-2,5-diphenyltetrazolium bromide, a yellow tetrazole), is reduced to purple formazan in living cells. A solubilization solution (usually either dimethyl sulfoxide, an acidified ethanol solution, or a solution of the detergent sodium dodecyl sulphate in diluted hydrochloric acid) is added to dissolve the insoluble purple formazan product into a coloured solution. The absorbance of this coloured solution can be quantified by measuring at a certain wavelength (usually between 500 and 600 nm) by a spectrophotometer. The absorption maximum is dependent on the solvent employed.
(§3) WST-1 (Roche Applied Sciences, Montreal) is a ready-to-use substrate which measures the metabolic activity of viable cells. The WST-1 assay is nonradioactive and can be performed entirely in a microplate. It is suitable for measuring cell proliferation, cell viability or cytotoxicity. The assay is based on the reduction of WST-1 by viable cells. The reaction produces a soluble formazan salt. The procedure involves: Culturing the cells in a 96-well microplate, then incubating them with WST-1 for approx. 0.5-4 h. During this incubation period, viable cells convert WST-1 to a water-soluble formazan dye. Quantitating the formazan dye in the microplate is done with an ELISA plate reader. The absorbance directly correlates with the cell number.

[9] = tested on: MDA MB-231 cells; assay: Cell viability of MDA MB-231 breast cancer cells in culture (MTT or WST-1, 72 hrs); type: cell-based, human; conditions: MDA MB-231; for Chemo-drug LD50: WST-1, 72 hrs
Description: (§4) MDA MB-231cells (ATCC® Number: HTB-26™) are human mammary gland breast adenocarcinoma derived from metastatic pleural effusion with epithelial morphology. MCF-7 (ATCC® Number: HTB-22™) are human mammary gland breast adenocarcinoma derived from metastatic pleural effusion with epithelial morphology.
as §1, §2, §3

[10] = tested on: MCF-7 cells; assay: Cell viability of MCF-7 breast cancer cells in culture (MTT or WST-1, 72 hrs); type: cell-based, human; conditions: MCF-7; for Chemo-drug LD50: WST-1, 72 hrs
Description: as §4, §1, §2, §3

[11] = tested on: A 2780 cells; assay: Cell viability of A 2780 ovarian cancer cells in culture (MTT or WST-1, 72 hrs); type: cell-based, human; conditions: A 2780; for Chemo-drug LD50: WST-1, 72 hrs
Description: (§5) A-2780 cells are human ovarian cancer cell line which was established from tumor tissue from an untreated patient with adenocarcinoma. Cells grow as a monolayer and in suspension in spinner cultures.
as §1, §2, §3

[12] = tested on: A 2780cis cells; assay: Cell viability of A 2780cis ovarian cancer cells in culture (MTT or WST-1, 72 hrs); type: cell-based, human; conditions: A 2780cis; for Chemo-drug LD50: WST-1, 72 hrs
Description: as §5, §1, §2, §3

[13] = tested on: PANC-1 human pancreatic cancer cells implanted in RAG1/Cγ double mutant NOD xenograft mice; assay: PANC-1 pancreatic cancer xenograft in RAG1/Cγ double mutant NOD mice; conditions: for Liver metastases % Inhibition: vs untreated day 79
Description: An immunodeficient mouse model with a double mutation in the combining recombinase activating gene-1 or -2 (RAG1 or RAG2) and common cytokine receptor γ chain (cγ) were used as xenograft mice. […] Mice deficient in both RAG2 and cγ (RAG2−/−/cγ−/−) were generated by inter-crossing and were maintained in SPF isolators in the Animal Care Facility, Queen's University, Kingston, Ontario K7L3N6, Canada. A colony was established in the animal facility. Mice deficient in both RAG1 and cγ (RAG1^−/−×cγ^−/−) on a non-obese diabetic (NOD) genetic background were obtained from the Jackson Laboratory (Bar Harbor, Me.) and a colony was established in the animal facility. All mice were kept under sterile conditions in micro-isolators or air-filtered cages, and were provided with autoclaved food and water. […] They were used between 6 and 8 weeks of age.
Puromycin-resistance eGFP transduced MiaPaCa-2 or PANC-1 cell clones were grown in 75 cm^2 cell culture flask at 80% confluence. The cells were resuspended into solution using TrypLE Express (Gibco) and washed with sterile saline. The cell suspension was centrifuged for 3 min at 900 rpm, and the cell pellet resuspended in sterile saline at a concentration of 5-10×10^6 cells/mL for 1-2×10^6 cells implantation into the right back flank of the mouse. Tumour measurements were taken twice a week. Tumour volumes were determined by (width square/2)×length.
The RAG1/Cγ double mutant xenograft mouse model was implanted with 2×10^6 PANC-1 cells in 0.2 mL in the right back flank.

[14] = tested on: Neu1 sialidase; conditions: NGF treated live TrkA-expressing cells; cited from earlier work
[15] = target: T3, human Neu3 sialidase (Homo sapiens, UniProt Q9UQ49); conditions: in the micromolar range; cited from earlier work
T3 sequence (Q9UQ49 1-428): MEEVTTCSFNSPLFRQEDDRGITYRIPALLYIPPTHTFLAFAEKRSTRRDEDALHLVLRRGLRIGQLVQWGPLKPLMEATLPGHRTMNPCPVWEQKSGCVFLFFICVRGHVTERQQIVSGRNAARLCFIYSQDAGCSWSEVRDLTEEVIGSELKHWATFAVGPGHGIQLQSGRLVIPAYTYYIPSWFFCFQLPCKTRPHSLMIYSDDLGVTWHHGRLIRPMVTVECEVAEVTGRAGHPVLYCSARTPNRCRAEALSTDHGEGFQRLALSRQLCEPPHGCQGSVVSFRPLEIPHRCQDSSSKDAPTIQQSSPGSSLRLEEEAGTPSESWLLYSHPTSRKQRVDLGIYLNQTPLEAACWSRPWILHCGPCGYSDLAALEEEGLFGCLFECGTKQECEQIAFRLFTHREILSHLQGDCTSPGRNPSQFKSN

[16] = target: T4, Neu1 sialidase (Homo sapiens, UniProt Q99519); conditions: 2 mM; lysates from mature dendritic cells; cited from earlier work
T4 construct: using lysates from mature dendritic cells; host or cells: lysates from mature dendritic cells

[17] = tested on: Neu3 sialidase; conditions: 2 mM; lysates from mature dendritic cells; cited from earlier work
[18] = tested on: TLR4/MD2; conditions: HEK293 cells stably transfected with TLR4/MD2; cited from earlier work
[19] = co-treatment oseltamivir phosphate 730 μM
[20] = co-treatment oseltamivir phosphate 1460 μM
[21] = chemo-drug alone, abraxane 0.5 mg/kg day 78, gemcitabine 30 mg/kg day […]
[22] = day 84, Gemcitabine 30 mg/kg alone
[23] = day 93, Gemcitabine 30 mg/kg alone
[24] = day 112, Gemcitabine 30 mg/kg alone
[25] = oseltamivir phosphate 2 mg/kg, alone day 90, with abraxane 0.5 day 78, with gemcitabine 30 day 110
[26] = oseltamivir phosphate 5 mg/kg, alone day 90, with abraxane 0.5 day 90, with gemcitabine 30 day 109

Compound: CCC(CC)[C@H](NC(C)=O)[C@@H]1C[C@@H](C(=O)O)C[C@H]1N=C(N)N [BCX-1827]
- Inhibition of LPS induced sialidase activity (in words) [1]: limited effect

Compound: CC(=O)N[C@H]1[C@H]([C@H](O)[C@H](O)CO)OC(C(=O)O)=C[C@@H]1O [DANA, 2-deoxy-2,3-dehydro-N-acetylneuraminic acid]
- Inhibition of LPS induced sialidase activity (in words) [1]: limited effect
- Inhibition of Neu1 sialidase (in words) [2]: moderate inhibitor of Neu1 sialidase

Compound: COC(=O)[C@H](c1ccccc1Cl)N1CCc2sccc2C1 [clopidogrel]
- Effect on oseltamivir phosphate's capacity to inhibit LPS induced sialidase activity [3]: no effect
- Inhibition of hydrolysis of oseltamivir phosphate by carboxylesterase [4]: ≤ 90%

Compound: Nc1ccn([C@@H]2O[C@H](CO)[C@@H](O)C2(F)F)c(=O)n1 [gemcitabine, Gemcitabine]
- Chemo-drug LD50 [5, 19]: 0.78 µM
- Chemo-drug LD50 [5, 20]: 0.078 µM
- Chemo-drug LD50 ([5]; oseltamivir phosphate 0 μM): 0.78 µM
- Chemo-drug sensitivity with oseltamivir phosphate (fold increase) ([5]; oseltamivir phosphate 730 μM): 1 fold increase
- Chemo-drug sensitivity with oseltamivir phosphate (fold increase) ([5]; oseltamivir phosphate 1460 μM): 10 fold increase
- Chemo-drug LD50 [6, 19]: 1.6 µM
- Chemo-drug LD50 [6, 20]: 1.5 µM
- Chemo-drug LD50 ([6]; oseltamivir phosphate 0 μM): >26 µM
- Chemo-drug sensitivity with oseltamivir phosphate (fold increase) ([6]; oseltamivir phosphate 730 μM): 16 fold increase
- Chemo-drug sensitivity with oseltamivir phosphate (fold increase) ([6]; oseltamivir phosphate 1460 μM): 17 fold increase
- Chemo-drug LD50 [7, 19]: 0.78 µM
- Chemo-drug LD50 [7, 20]: 1 µM
- Chemo-drug LD50 ([7]; oseltamivir phosphate 0 μM): 0.78 µM
- Chemo-drug sensitivity with oseltamivir phosphate (fold increase) ([7]; oseltamivir phosphate 730 μM): 1 fold increase
- Chemo-drug sensitivity with oseltamivir phosphate (fold increase) ([7]; oseltamivir phosphate 1460 μM): 0.78 fold increase
- Chemo-drug LD50 [8, 19]: 30 µM
- Chemo-drug LD50 ([8]; oseltamivir phosphate 0 μM): 60 µM
- Chemo-drug sensitivity with oseltamivir phosphate (fold increase) ([8]; oseltamivir phosphate 730 μM): 2 fold increase
- Chemo-drug LD50 [9, 19]: 40 µM
- Chemo-drug LD50 ([9]; oseltamivir phosphate 0 μM): 70 µM
- Chemo-drug sensitivity with oseltamivir phosphate (fold increase) ([9]; oseltamivir phosphate 730 μM): 2 fold increase
- Chemo-drug LD50 [10, 19]: 40 µM
- Chemo-drug LD50 ([10]; oseltamivir phosphate 0 μM): 40 µM
- Chemo-drug sensitivity with oseltamivir phosphate (fold increase) ([10]; oseltamivir phosphate 730 μM): 1 fold increase
- Chemo-drug LD50 [11, 19]: 40 µM
- Chemo-drug LD50 ([11]; oseltamivir phosphate 0 μM): 60 µM
- Chemo-drug sensitivity with oseltamivir phosphate (fold increase) ([11]; oseltamivir phosphate 730 μM): 1.5 fold increase
- Chemo-drug LD50 [12, 19]: 40 µM
- Chemo-drug LD50 ([12]; oseltamivir phosphate 0 μM): 60 µM
- Chemo-drug sensitivity with oseltamivir phosphate (fold increase) ([12]; oseltamivir phosphate 730 μM): 1.5 fold increase
- Liver metastases (ave number of nodules) [13, 21]: 12
- Metastases (size, mm) [13, 21]: 0.3-1.5 mm
- Tumour volume ([13]; day 79, chemotherapeutic alone (Abraxane 0.5 mg/kg or Gemcitabine 30 mg/kg i.p. once weekly)): 200 ± 47 (5) mm^3
- % Inhibition To untreated ([13]; day 79, chemotherapeutic alone (Abraxane 0.5 or Gemcitabine 30 mg/kg)): 86%
- % Inhibition To untreated ([13]; day 79, chemotherapeutic alone (Abraxane 0.5 or Gemcitabine 30 mg/kg), listed as Gemcitabine): 86% (p < 0.0001)
- % Inhibition To untreated [13, 22]: 89%
- Tumour volume [13, 22]: 159 ± 52 (5) mm^3
- % Inhibition To untreated ([13]; day 84, Gemcitabine 30 mg/kg alone, listed as Gemcitabine): 89% (p < 0.0001)
- % Inhibition To untreated [13, 23]: 69%
- Tumour volume [13, 23]: 437 ± 140 (3) mm^3
- % Inhibition To untreated ([13]; day 93, Gemcitabine 30 mg/kg alone, listed as Gemcitabine): 69% (p < 0.0001)
- % Inhibition To untreated [13, 24]: 63%
- Tumour volume [13, 24]: 507 ± 357(2) mm^3
- % Inhibition To untreated ([13]; day 112, Gemcitabine 30 mg/kg alone, listed as Gemcitabine): 63%
- Liver metastases (ave number of nodules) ([13]; oseltamivir phosphate 2 mg/kg, alone day 90, with abraxane 0.5 mg/kg day 78, with gemcitabine 30 mg/kg day 110): 10
- Metastases (size, mm) [13, 25]: 0.5-1.2 mm
- Liver metastases % Inhibition [13, 25]: 76%
- Liver metastases (ave number of nodules) ([13]; oseltamivir phosphate 5 mg/kg, alone day 90, with abraxane 0.5 mg/kg day 90, with gemcitabine 30 mg/kg day 109): 8
- Metastases (size, mm) [13, 26]: 0.2-1.5 mm
- Liver metastases % Inhibition [13, 26]: 81%

Compound: CC(=O)N[C@H]1[C@H]([C@H](O)[C@H](O)CO)OC(C(=O)O)=C[C@@H]1N=C(N)N [zanamivir, 4-guanidino-Neu5Ac2en]
- Inhibition of LPS induced sialidase activity (in words) [1]: limited effect
- Inhibition of Neu1 sialidase activity (in words) [14]: limited inhibitory effect
- Inhibition of human Neu3 sialidase (in words) [15]: significantly inhibited
- Inhibition of Neu1 sialidase activity (in words) [16]: completely inhibited
- Inhibition of Neu3 sialidase activity (in words) [17]: completely inhibited

Compound: galectin-1: α-2,3-sialyl specific galectin-1
- Inhibition of TLR ligand-induced NFκB responses (in words) [18]: significantly inhibited

From patent publication US10350188B2, “Use of Neu1 sialidase inhibitors in the treatment of cancer” (priority 2011, dated 2019)
